In patent publication EP0105658A1, “Beta-lactam compounds” (BEECHAM GROUP PLC, priority 1982, dated 1984):
In brackets after ≈: the same amount, converted by molar mass. Like-named read-outs stand apart in the source and are kept apart here.

Key:
[1] = system: S aureus Russell; test: MIC, antibacterial activity (microtitre using nutrient broth); assay type: cell-based; details: * racemic, not corrected for presence of inactive enantiomer
[2] = Stability in kidney preparations (human); assay type: in vitro ADME
[3] = Stability in kidney preparations (pig); assay type: in vitro ADME; details: 100 mg/ml solubilised in 5% Triton X-100, * racemic compounds: figures based on stability of bio-active enantiomer
[4] = system: S typhimurium CT10; test: MIC, antibacterial activity (microtitre using nutrient broth); assay type: cell-based; details: * racemic, not corrected for presence of inactive enantiomer
[5] = system: R + E coli; test: as above; assay type: cell-based; details: * racemic, not corrected for presence of inactive enantiomer
[6] = system: Pseudomonas aeruginosa A; test: as above; assay type: cell-based; details: for MIC: Pseudomonas aeruginosa
[7] = system: E. coli JT39; test: MIC against E. coli JT39; assay type: cell-based; set-up: unit not given here
[8] = 15% solubilised in 5% Triton X-100, 60 minutes, * racemic compounds: figures based on stability of bio-active enantiomer
[9] = Microtitre using Nutrient broth, * racemic, not corrected for presence of inactive enantiomer, read-out: MIC P aeruginosa A

Row | SMILES | MIC [1] [µg/mL] | % left after 60 minutes Human Kidney Sonicate [2, 8] [%] | % left after 60 minutes Pig Kidney Acetone Powder [3] [%] | MIC [4] [µg/mL] | MIC [5] [µg/mL] | MIC [6, 9] [µg/mL] | MIC against E. coli JT39 [7] | MIC ([6]; read-out: MIC against Pseudomonas aeruginosa A) [µg/mL] | MIC S aureus Russell [1] [µg/mL] | MIC S typhimurium CT10 [4] [µg/mL] | MIC R + E coli [5] [µg/mL] | MIC P aeruginosa A ([6]; Microtitre using Nutrient broth, * racemic, not corrected for presence of inactive enantiomer) [µg/mL] | % left after 60 minutes Human Kidney Sonicate ([2]; human, 60 min) [%]
1 | C[C@@H](O)[C@H]1C(=O)N2C(C(=O)O)=C(S/C=C\CN)C[C@H]12 (racemic) [Example 13, (5RS, 6SR)-3-[(Z)-3-Aminoprop-1-enylthio]-b-[(1RS)-1-hydroxyethyl]-7-oxo-1-azabicyclo[3.2.0]hept-2-ene-2-carboxylic acid] | 0.08 | 39 | 40 | 0.6 | 0.4 | 25 |  |  |  |  |  |  | 
2 | C/C(=C\CN)SC1=C(C(=O)O)N2C(=O)[C@H]([C@@H](C)O)[C@H]2C1 (racemic) [Example 14, (5RS, 6SR)-3-[(E)-3-amino-1-methylprop-1-enylthio]-6-[(RS)-1-hydroxyethyl]-7-oxo=1-azabicyclo[3.2.0]hept-2-ene-2-carboxylic acid] | < 0.1 | 23 | 36 | 0.4 | 0.4 | 25 |  |  |  |  |  |  | 
3 | C[C@H](O)[C@@H]1C(=O)N2C(C(=O)O)=C(S/C=C\CN)C[C@H]12 [Example 1] |  | 40 | 39 |  |  |  | 0.4 | 6.2 (≈ 21.8 µM) |  |  |  |  | 
4 | C[C@@H](O)[C@H]1C(=O)N2C(C(=O)O)=C(S/C=C\CN)C[C@H]12 [Example 2, (5R,6S)-3-[(Z)-3-aminoprop-1-enylthio]-6-[(R)-1-hydroxyethyl]-7-oxo-1-azabicy,clo[3.2.0]hept-2-ene-2-carboxylic acid] |  |  |  |  |  |  |  |  | 0.08 | 0.6 | 0.3 | 25 | 
5 | C/C(=C/CN)SC1=C(C(=O)O)N2C(=O)[C@@H]([C@H](C)O)[C@H]2C1 [Example 8] | < 0.1 | 51 | 78 | < 0.1 | 1.6 | 25 |  |  |  |  |  |  | 
6 | C/C(=C/CN)SC1=C(C(=O)O)N2C(=O)[C@H]([C@@H](C)O)[C@H]2C1 [Example 10, (5R,6S)-3-[(Z)-3-amino-1-methylprop-1-enylthio]-6-[(R)-1-hydroxyethyl]-7-oxo-1-azabicyclo[3.2.0]hept-2-ene-2-carboxylic acid] | 0.1 |  |  | 0.2 |  | 25 |  |  |  |  |  |  | 56
7 | C[C@H](O)[C@@H]1C(=O)N2C(C(=O)O)=C(S/C=C/CN)C[C@H]12 [Example 11, (5R,6R)-3-[(E)-3-aminoprop-1-enylthio]-6-[(S)-1-hydroxyethyl]-7-oxo-1-azabicyelo[3.2.0]hept-2-ene-2-carboxylic acid] | < 0.1 | 7 | 6 | 0.4 | < 0.1 | 12.5 |  |  |  |  |  |  | 
8 | C[C@@H](O)[C@H]1C(=O)N2C(C(=O)O)=C(S/C=C/CN)C[C@H]12 [Example 12, (5R, 6S)-3-[(E)-3-aminoprop-1-enylthio]-6-[(R)-1-hydroxyethyl]-7-oxo-1-azabicyclo[3.2.0]hept-2-ene-2-carboxylic acid] | < 0.1 |  |  | 0.2 |  | 12.5 |  |  |  |  |  |  | 5
9 | C/C(=C\CN)SC1=C(C(=O)O)N2C(=O)[C@@H]([C@H](C)O)[C@H]2C1 [Example 16, (5R, 6R)-3-[(E)-3-amino-1-methylprop-1-enylthio]-6-[(S)-1-hydroxyethyl]-7-oxo-1-azabicyclo[3.2.0]hept-2-ene-2-carboxylate] | < 0.1 | 13 | 38 | 0.2 | 1.6 | 25 |  |  |  |  |  |  | 
